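Briefly, cells in 96-well plates were exposed to five compound concentrations for 48 h, and endpoints were estimated by linear interpolation. GI50 is the concentration that inhibits growth by half.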 Activity calls are given as the source filed them. Cut-off read from the data, not from the text of the source: active = GI50 up to about 1.1 µM and inactive = higher.
Key:
Test in all cases: NCI anticancer screen, dose series, 48 h
HCT-116 = test system: HCT-116
OVCAR-3 = test system: OVCAR-3
TK-10 = test system: TK-10
SW-620 = test system: SW-620
T47D = test system: T47D
OVCAR-4 = test system: OVCAR-4
DU-145 = test system: DU-145
ACHN = test system: ACHN
MCF7 = test system: MCF7
MOLT-4 = test system: MOLT-4
NCI-H522 = test system: NCI-H522
UACC-257 = test system: UACC-257
RXF 393 = test system: RXF 393
SNB-19 = test system: SNB-19
A498 = test system: A498
IGROV-1 = test system: IGROV-1
Hs-578T = test system: Hs-578T
UACC-62 = test system: UACC-62

In the case of CO/C(=N\N=C\c1ccccc1F)c1ccncc1, the GI50 (HCT-116) is reported as > 10 µM (inactive), the GI50 (OVCAR-3) is reported as > 10 µM (inactive) and the GI50 (TK-10) is reported as > 10 µM (inactive). The GI50 (SW-620) was > 10 µM (inactive), the GI50 (T47D) was > 10 µM (inactive) and the GI50 (OVCAR-4) was > 10 µM (inactive). For the same molecule, the GI50 (DU-145) was > 10 µM (inactive), the GI50 (ACHN) was > 10 µM (inactive) and the GI50 (MCF7) was > 10 µM (inactive). For the same molecule, the GI50 (MOLT-4) was > 10 µM (inactive), the GI50 (NCI-H522) was > 10 µM (inactive) and the GI50 (UACC-257) was > 10 µM (inactive). For the same molecule, the GI50 (RXF 393) was > 10 µM (inactive) and the GI50 (SNB-19) was > 10 µM (inactive).

For N#Cc1ccc(Oc2nc3ccccc3nc2C(=O)O)cc1, the GI50 (HCT-116) was > 100 µM (inactive), the GI50 (OVCAR-3) was > 100 µM (inactive) and the GI50 (TK-10) was > 100 µM (inactive). The GI50 (A498) was > 100 µM (inactive), the GI50 (SW-620) was > 100 µM (inactive) and the GI50 (IGROV-1) was > 100 µM (inactive). The GI50 (T47D) was > 100 µM (inactive), the GI50 (OVCAR-4) was > 100 µM (inactive) and the GI50 (DU-145) was > 100 µM (inactive). For the same molecule, the GI50 (Hs-578T) was > 100 µM (inactive), the GI50 (ACHN) was > 100 µM (inactive) and the GI50 (MOLT-4) was > 100 µM (inactive). For the same molecule, the GI50 (NCI-H522) was > 100 µM (inactive), the GI50 (UACC-257) was > 100 µM (inactive) and the GI50 (UACC-62) was > 100 µM (inactive). For the same molecule, the GI50 (RXF 393) was > 100 µM (inactive) and the GI50 (SNB-19) was > 100 µM (inactive).

In the case of C=C(Cl)C(Br)(CBr)CCC(Br)C(C)(C)Br (centres undefined), the GI50 (HCT-116) is reported as 2.01 µM (inactive), the GI50 (OVCAR-3) is reported as > 10 µM (inactive) and the GI50 (TK-10) is reported as > 10 µM (inactive). For the same molecule, the GI50 (A498) was > 10 µM (inactive), the GI50 (SW-620) was 2.7 µM (inactive) and the GI50 (IGROV-1) was 1.55 µM (inactive). For the same molecule, the GI50 (OVCAR-4) was 3.99 µM (inactive), the GI50 (DU-145) was > 10 µM (inactive) and the GI50 (ACHN) was 9.16 µM (inactive). The GI50 (MCF7) was 2.11 µM (inactive), the GI50 (MOLT-4) was 1.08 µM (active) and the GI50 (NCI-H522) was > 10 µM (inactive). For the same molecule, the GI50 (UACC-62) was 4.11 µM (inactive), the GI50 (RXF 393) was 2.75 µM (inactive) and the GI50 (SNB-19) was 4.25 µM (inactive).

With Cn1c2ccccc2c(=O)c2c(O)cc3c(c21)C=CC1(CCCC1)O3 the GI50 (HCT-116) was > 100 µM (inactive), the GI50 (OVCAR-3) was > 100 µM (inactive) and the GI50 (TK-10) was > 100 µM (inactive). The GI50 (A498) was > 100 µM (inactive), the GI50 (SW-620) was > 100 µM (inactive) and the GI50 (IGROV-1) was 61.7 µM (inactive). The GI50 (OVCAR-4) was 41.7 µM (inactive), the GI50 (DU-145) was > 100 µM (inactive) and the GI50 (Hs-578T) was 95.7 µM (inactive). For the same molecule, the GI50 (ACHN) was > 100 µM (inactive), the GI50 (MCF7) was > 100 µM (inactive) and the GI50 (MOLT-4) was > 100 µM (inactive). For the same molecule, the GI50 (NCI-H522) was > 100 µM (inactive), the GI50 (UACC-257) was > 100 µM (inactive) and the GI50 (UACC-62) was > 100 µM (inactive). For the same molecule, the GI50 (RXF 393) was 22.7 µM (inactive) and the GI50 (SNB-19) was > 100 µM (inactive).

In the case of O=C1N=C(S)NNC12c1ccccc1-c1ccccc12, the GI50 (TK-10) is reported as > 10 µM (inactive), the GI50 (A498) is reported as 3.31 µM (inactive) and the GI50 (SW-620) is reported as > 10 µM (inactive). For the same molecule, the GI50 (IGROV-1) was > 10 µM (inactive), the GI50 (T47D) was 1.98 µM (inactive) and the GI50 (OVCAR-4) was > 10 µM (inactive). The GI50 (DU-145) was > 10 µM (inactive), the GI50 (Hs-578T) was 6.18 µM (inactive) and the GI50 (MCF7) was 8.71 µM (inactive). For the same molecule, the GI50 (MOLT-4) was > 10 µM (inactive), the GI50 (UACC-257) was > 10 µM (inactive) and the GI50 (UACC-62) was > 10 µM (inactive).

COc1cc2c(c(OC)c1OC)C(=O)c1c(O)cc(C)c(OC)c1C2=O was tested, and the GI50 (HCT-116) was 99.1 µM (inactive), the GI50 (OVCAR-3) was > 100 µM (inactive) and the GI50 (TK-10) was 27.2 µM (inactive). For the same molecule, the GI50 (A498) was > 100 µM (inactive), the GI50 (SW-620) was > 100 µM (inactive) and the GI50 (IGROV-1) was > 100 µM (inactive). The GI50 (OVCAR-4) was > 100 µM (inactive), the GI50 (DU-145) was > 100 µM (inactive) and the GI50 (Hs-578T) was 15.6 µM (inactive). The GI50 (ACHN) was 46 µM (inactive), the GI50 (MCF7) was > 100 µM (inactive) and the GI50 (MOLT-4) was > 100 µM (inactive). The GI50 (NCI-H522) was 57.1 µM (inactive), the GI50 (UACC-257) was 54.6 µM (inactive) and the GI50 (SNB-19) was 77.1 µM (inactive).

With COc1ccc2oc(=O)c(CC=C(C)C)c(O)c2c1C the GI50 (HCT-116) was > 100 µM (inactive), the GI50 (OVCAR-3) was > 100 µM (inactive) and the GI50 (TK-10) was > 100 µM (inactive). The GI50 (A498) was > 100 µM (inactive), the GI50 (SW-620) was > 100 µM (inactive) and the GI50 (IGROV-1) was > 100 µM (inactive). For the same molecule, the GI50 (T47D) was > 100 µM (inactive), the GI50 (DU-145) was > 100 µM (inactive) and the GI50 (Hs-578T) was > 100 µM (inactive). The GI50 (ACHN) was > 100 µM (inactive), the GI50 (MCF7) was > 100 µM (inactive) and the GI50 (MOLT-4) was 36.4 µM (inactive). The GI50 (NCI-H522) was > 100 µM (inactive), the GI50 (UACC-257) was > 100 µM (inactive) and the GI50 (UACC-62) was > 100 µM (inactive). The GI50 (SNB-19) was > 100 µM (inactive).

Cn1c2ccccc2c2ccc3c(c21)C(=O)c1ccccc1C3=O was tested, and the GI50 (HCT-116) was 17.3 µM (inactive), the GI50 (OVCAR-3) was 12.9 µM (inactive) and the GI50 (TK-10) was 14.4 µM (inactive). The GI50 (A498) was > 10 µM (inactive), the GI50 (SW-620) was 28.2 µM (inactive) and the GI50 (IGROV-1) was 13.8 µM (inactive). For the same molecule, the GI50 (T47D) was 11.7 µM (inactive), the GI50 (OVCAR-4) was 17.5 µM (inactive) and the GI50 (DU-145) was 84.5 µM (inactive). The GI50 (Hs-578T) was 14.1 µM (inactive), the GI50 (ACHN) was 12.4 µM (inactive) and the GI50 (NCI-H522) was 15.1 µM (inactive). For the same molecule, the GI50 (UACC-257) was 19.5 µM (inactive), the GI50 (UACC-62) was 16.7 µM (inactive) and the GI50 (RXF 393) was 15.8 µM (inactive). The GI50 (SNB-19) was 37.8 µM (inactive).

In the case of O=S(=O)(O)c1ccc2c(/N=N/c3cccc4ccccc34)c(O)ccc2c1, the GI50 (HCT-116) is reported as > 100 µM (inactive), the GI50 (OVCAR-3) is reported as > 100 µM (inactive) and the GI50 (TK-10) is reported as > 100 µM (inactive). The GI50 (A498) was > 100 µM (inactive), the GI50 (SW-620) was > 100 µM (inactive) and the GI50 (IGROV-1) was > 100 µM (inactive). For the same molecule, the GI50 (T47D) was > 100 µM (inactive), the GI50 (OVCAR-4) was > 100 µM (inactive) and the GI50 (DU-145) was > 100 µM (inactive). For the same molecule, the GI50 (Hs-578T) was > 100 µM (inactive), the GI50 (ACHN) was > 100 µM (inactive) and the GI50 (MOLT-4) was > 100 µM (inactive). The GI50 (NCI-H522) was > 100 µM (inactive), the GI50 (UACC-257) was > 100 µM (inactive) and the GI50 (UACC-62) was > 100 µM (inactive). For the same molecule, the GI50 (RXF 393) was > 100 µM (inactive) and the GI50 (SNB-19) was 74.6 µM (inactive).

Reference: ChEMBL document CHEMBL1201862, “PubChem BioAssay data set” (2004)
